Measured values as given in ChEMBL document CHEMBL2390840, “An analysis of the synthetic tryptamines AMT and 5-MeO-DALT: emerging 'Novel Psychoactive Drugs'” (Bioorg Med Chem Lett, 2013).

What was measured:
[1] = target: 5-hydroxytryptamine receptor 1D (Homo sapiens, UniProt P28221); experiment: Displacement of [3H][…] from human recombinant 5-HT1D receptor expressed in HEK293T cells after 1 to […] by scintillation counting analysis; type: cell-based, HEK-293T
[2] = target: D(4) dopamine receptor (Homo sapiens, UniProt P21917); experiment: Displacement of [3H]N-methylspiperone from human recombinant dopamine D4 receptor expressed in HEK293 cells after 1 to […] by scintillation counting analysis; type: cell-based
[3] = target: Glutamate NMDA receptor; experiment: Displacement of [3H]MK801 from NMDA receptor PCP binding site in rat brain after 1 to […] by scintillation counting analysis; type: tissue-based
[4] = target: Beta-3 adrenergic receptor (Homo sapiens, UniProt P13945); experiment: Displacement of [125I]Iodopindolol from human recombinant adrenergic beta3 receptor expressed in HEK293 cells coexpressing FLP-IN after 1 to […] by scintillation counting analysis; type: cell-based
[5] = target: 5-hydroxytryptamine receptor 3A (Homo sapiens, UniProt P46098); experiment: Displacement of [3H]LY278584 from human recombinant 5-HT3 receptor expressed in HEK293T cells after 1 to […] by scintillation counting analysis; type: cell-based, HEK-293T
[6] = Displacement of [3H]Baclofen from GABAB receptor in rat brain after 1 to […] by scintillation counting analysis; type: tissue-based
[7] = target: 5-hydroxytryptamine receptor 5A (Homo sapiens, UniProt P47898); experiment: Displacement of [3H]LSD from human recombinant 5-HT5A receptor expressed in CHO cells coexpressing FLP-IN after 1 to […] by scintillation counting analysis; type: cell-based
[8] = target: T1, Sodium-dependent serotonin transporter (Homo sapiens, UniProt P31645); experiment: Displacement of [3H]Citalopram from human recombinant serotonin transporter expressed in HEK293 cells after 1 to […] by scintillation counting analysis; type: cell-based
[9] = target: Sodium-dependent dopamine transporter (Homo sapiens, UniProt Q01959); experiment: Displacement of [3H]WIN35428 from human recombinant dopamine transporter expressed in HEK293 cells after 1 to […] by scintillation counting analysis; type: cell-based
[10] = target: Translocator protein (Rattus norvegicus, UniProt P16257); experiment: Displacement of [3H]PK11195 from peripheral benzodiazepine receptor in rat brain after 1 to […] by scintillation counting analysis; type: tissue-based
[11] = target: Cannabinoid receptor 2 (Homo sapiens, UniProt P34972); experiment: Displacement of [3H]CP55940 from human recombinant CB2 receptor expressed in HEK293 cells coexpressing FLP-IN after 1 to […] by scintillation counting analysis; type: cell-based
[12] = target: Histamine H2 receptor (Homo sapiens, UniProt P25021); experiment: Displacement of [3H]Tiotidine from human recombinant histamine H2 receptor expressed in HEK293 cells after 1 to […] by scintillation counting analysis; type: cell-based
[13] = target: Mu-type opioid receptor (Homo sapiens, UniProt P35372); experiment: Displacement of [3H]DAMGO from human recombinant mu opioid receptor receptor expressed in HEK293 cells after 1 to […] by scintillation counting analysis; type: cell-based
[14] = target: Cannabinoid receptor 1 (Homo sapiens, UniProt P21554); experiment: Displacement of [3H]CP55940 from human recombinant CB1 receptor expressed in HEK293 cells coexpressing FLP-IN after 1 to […] by scintillation counting analysis; type: cell-based
[15] = target: 5-hydroxytryptamine receptor 7 (Homo sapiens, UniProt P34969); experiment: Displacement of [3H]LSD from human recombinant 5-HT7 receptor expressed in HEK293 cells after 1 to […] by scintillation counting analysis; type: cell-based
[16] = target: Neuronal acetylcholine receptor; alpha3/beta2 (Homo sapiens, UniProt P17787+P32297); experiment: Displacement of [3H]Epibatidine from human recombinant alpha3beta2 nACh receptor expressed in HEK293 cells after 1 to […] by scintillation counting analysis; type: cell-based
[17] = target: Sigma non-opioid intracellular receptor 1 (Cavia porcellus, UniProt Q60492); experiment: Displacement of [3H]Pentazocine from guinea pig sigma 1 receptor after 1 to […] by scintillation counting analysis
[18] = target: Neuronal acetylcholine receptor; alpha4/beta2 (Homo sapiens, UniProt P17787+P43681); experiment: Displacement of [3H]Epibatidine from human recombinant alpha4beta2 nACh receptor expressed in HEK293 cells after 1 to […] by scintillation counting analysis; type: cell-based
[19] = target: 5-hydroxytryptamine receptor 2C (Homo sapiens) (UniProt P28335); experiment: Agonist activity at human 5-HT2C receptor expressed in HEK293 cells assessed as increase in calcium mobilization by FLIPR assay relative to 5-HT; type: functional, cell-based
[20] = target: Histamine H3 receptor (Homo sapiens, UniProt Q9Y5N1); experiment: Displacement of [3H]alpha-methylhistamine from human recombinant histamine H3 receptor expressed in HEK293 cells after 1 to […] by scintillation counting analysis; type: cell-based
[21] = target: T2, 5-hydroxytryptamine receptor 2B (Homo sapiens, UniProt P41595); experiment: Agonist activity at human 5-HT2B receptor expressed in HEK293 cells assessed as increase in calcium mobilization by FLIPR assay relative to 5-HT; type: functional, cell-based
[22] = target: Muscarinic acetylcholine receptor M4 (Homo sapiens, UniProt P08173); experiment: Displacement of [3H]QNB from human recombinant muscarinic M4 receptor expressed in CHO cells after 1 to […] by scintillation counting analysis; type: cell-based
[23] = target: T1, Sodium-dependent serotonin transporter; type: cell-based, HEK293
[24] = target: D(1B) dopamine receptor (Homo sapiens, UniProt P21918); experiment: Displacement of […] from human recombinant dopamine D5 receptor expressed in HEK293 cells after 1 to […] by scintillation counting analysis; type: cell-based
[25] = target: Beta-1 adrenergic receptor (Homo sapiens, UniProt P08588); experiment: Displacement of [125I]Iodopindolol from human recombinant adrenergic beta1 receptor expressed in CHO cells coexpressing FLP-IN after 1 to […] by scintillation counting analysis; type: cell-based
[26] = target: Alpha-1D adrenergic receptor (Homo sapiens, UniProt P25100); experiment: Displacement of [3H]Prazosin from human recombinant adrenergic alpha1D receptor expressed in HEK293 cells after 1 to […] by scintillation counting analysis; type: cell-based
[27] = target: T2, 5-hydroxytryptamine receptor 2B; experiment: Agonist activity at human 5-HT2B receptor expressed in HEK293 cells assessed as increase in calcium mobilization by FLIPR assay; type: functional, cell-based
[28] = target: D(3) dopamine receptor (Homo sapiens, UniProt P35462); experiment: Displacement of [3H]N-methylspiperone from human recombinant dopamine D3 receptor expressed in HEK293 cells after 1 to […] by scintillation counting analysis; type: cell-based
[29] = Displacement of [3H]DTG from sigma 2 receptor in rat PC12 cells after 1 to […] by scintillation counting analysis; type: cell-based; conditions: pc-12
[30] = target: Sodium-dependent noradrenaline transporter (Homo sapiens, UniProt P23975); experiment: Inhibition of [3H]norepinephrine uptake at human NET expressed in HEK293 cells preincubated for 10 mins prior to substrate addition measured after 4 mins by […]; type: cell-based

T2 sequence (P41595 whole entry): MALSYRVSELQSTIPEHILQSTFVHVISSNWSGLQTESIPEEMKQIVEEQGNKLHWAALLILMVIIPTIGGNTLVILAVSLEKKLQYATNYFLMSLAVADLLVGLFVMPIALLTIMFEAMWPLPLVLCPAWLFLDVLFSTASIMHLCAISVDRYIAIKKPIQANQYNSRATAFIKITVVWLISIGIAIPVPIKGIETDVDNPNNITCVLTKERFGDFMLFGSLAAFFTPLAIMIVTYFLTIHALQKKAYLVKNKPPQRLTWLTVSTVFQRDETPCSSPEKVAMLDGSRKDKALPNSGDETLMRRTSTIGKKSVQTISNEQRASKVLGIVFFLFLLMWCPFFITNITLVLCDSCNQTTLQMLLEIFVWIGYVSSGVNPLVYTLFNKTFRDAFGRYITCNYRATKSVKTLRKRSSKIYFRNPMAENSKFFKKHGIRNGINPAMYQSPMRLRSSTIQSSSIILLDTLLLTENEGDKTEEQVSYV
T1 sequence (P31645 whole entry): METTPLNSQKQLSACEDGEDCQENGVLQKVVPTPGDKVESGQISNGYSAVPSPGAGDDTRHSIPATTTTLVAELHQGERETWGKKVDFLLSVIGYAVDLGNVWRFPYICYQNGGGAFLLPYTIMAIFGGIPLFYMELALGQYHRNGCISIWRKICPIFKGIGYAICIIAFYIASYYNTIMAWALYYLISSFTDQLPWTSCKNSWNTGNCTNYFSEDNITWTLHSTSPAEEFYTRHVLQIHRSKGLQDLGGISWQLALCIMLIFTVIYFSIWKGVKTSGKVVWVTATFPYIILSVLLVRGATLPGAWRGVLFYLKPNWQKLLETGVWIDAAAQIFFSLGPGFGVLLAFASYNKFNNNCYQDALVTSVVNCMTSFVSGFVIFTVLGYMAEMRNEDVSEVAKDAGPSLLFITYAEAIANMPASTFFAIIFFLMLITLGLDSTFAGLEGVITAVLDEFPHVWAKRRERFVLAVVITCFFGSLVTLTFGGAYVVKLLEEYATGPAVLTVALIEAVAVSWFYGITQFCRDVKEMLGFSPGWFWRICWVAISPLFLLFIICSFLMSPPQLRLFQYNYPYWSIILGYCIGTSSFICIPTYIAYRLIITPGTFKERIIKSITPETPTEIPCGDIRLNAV
Chain of Sigma non-opioid intracellular receptor 1 (Q60492 whole entry): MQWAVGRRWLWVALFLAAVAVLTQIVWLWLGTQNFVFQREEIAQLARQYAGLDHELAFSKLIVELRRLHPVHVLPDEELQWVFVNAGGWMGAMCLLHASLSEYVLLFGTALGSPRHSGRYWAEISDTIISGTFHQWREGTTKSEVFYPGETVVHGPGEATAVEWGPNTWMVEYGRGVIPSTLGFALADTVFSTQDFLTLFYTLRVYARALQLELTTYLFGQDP
Chain of 5-hydroxytryptamine receptor 7 (P34969 whole entry): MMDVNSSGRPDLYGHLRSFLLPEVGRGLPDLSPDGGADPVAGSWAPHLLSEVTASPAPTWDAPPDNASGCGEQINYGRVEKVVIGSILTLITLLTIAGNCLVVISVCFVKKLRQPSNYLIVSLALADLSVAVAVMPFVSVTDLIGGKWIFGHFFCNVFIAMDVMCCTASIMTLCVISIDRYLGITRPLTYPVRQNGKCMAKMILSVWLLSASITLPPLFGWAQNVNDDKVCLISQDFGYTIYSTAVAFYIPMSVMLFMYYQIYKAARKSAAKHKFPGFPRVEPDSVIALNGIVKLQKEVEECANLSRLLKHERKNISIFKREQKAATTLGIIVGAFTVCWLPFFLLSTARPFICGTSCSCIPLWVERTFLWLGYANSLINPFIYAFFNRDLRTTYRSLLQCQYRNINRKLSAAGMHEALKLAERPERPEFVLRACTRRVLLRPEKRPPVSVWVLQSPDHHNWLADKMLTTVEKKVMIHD
Chain of Mu-type opioid receptor (P35372 whole entry): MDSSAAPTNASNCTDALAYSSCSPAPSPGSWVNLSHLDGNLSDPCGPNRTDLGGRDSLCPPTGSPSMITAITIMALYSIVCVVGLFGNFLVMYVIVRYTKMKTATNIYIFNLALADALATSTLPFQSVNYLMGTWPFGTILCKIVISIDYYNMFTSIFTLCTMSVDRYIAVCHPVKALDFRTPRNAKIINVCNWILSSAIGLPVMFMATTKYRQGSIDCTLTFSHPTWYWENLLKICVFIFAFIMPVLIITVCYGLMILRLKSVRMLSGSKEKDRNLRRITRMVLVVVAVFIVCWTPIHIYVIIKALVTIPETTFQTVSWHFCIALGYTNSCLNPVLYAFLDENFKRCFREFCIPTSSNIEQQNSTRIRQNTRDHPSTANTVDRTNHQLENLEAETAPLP
Chain of Neuronal acetylcholine receptor; alpha4/beta2 (P17787 whole entry): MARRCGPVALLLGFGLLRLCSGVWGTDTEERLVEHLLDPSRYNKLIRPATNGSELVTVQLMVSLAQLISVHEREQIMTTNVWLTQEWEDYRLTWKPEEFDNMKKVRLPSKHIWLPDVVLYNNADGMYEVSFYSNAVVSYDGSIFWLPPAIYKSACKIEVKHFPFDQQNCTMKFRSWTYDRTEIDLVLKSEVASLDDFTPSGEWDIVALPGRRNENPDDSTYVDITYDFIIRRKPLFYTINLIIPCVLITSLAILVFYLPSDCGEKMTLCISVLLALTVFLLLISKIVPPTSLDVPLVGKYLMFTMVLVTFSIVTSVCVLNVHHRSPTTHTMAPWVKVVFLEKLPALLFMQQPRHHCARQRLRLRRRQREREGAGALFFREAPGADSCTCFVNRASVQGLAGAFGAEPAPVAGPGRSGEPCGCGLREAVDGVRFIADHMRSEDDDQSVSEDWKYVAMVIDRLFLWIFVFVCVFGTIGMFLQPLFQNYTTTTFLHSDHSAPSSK
Chain of Neuronal acetylcholine receptor; alpha4/beta2 (P43681 whole entry): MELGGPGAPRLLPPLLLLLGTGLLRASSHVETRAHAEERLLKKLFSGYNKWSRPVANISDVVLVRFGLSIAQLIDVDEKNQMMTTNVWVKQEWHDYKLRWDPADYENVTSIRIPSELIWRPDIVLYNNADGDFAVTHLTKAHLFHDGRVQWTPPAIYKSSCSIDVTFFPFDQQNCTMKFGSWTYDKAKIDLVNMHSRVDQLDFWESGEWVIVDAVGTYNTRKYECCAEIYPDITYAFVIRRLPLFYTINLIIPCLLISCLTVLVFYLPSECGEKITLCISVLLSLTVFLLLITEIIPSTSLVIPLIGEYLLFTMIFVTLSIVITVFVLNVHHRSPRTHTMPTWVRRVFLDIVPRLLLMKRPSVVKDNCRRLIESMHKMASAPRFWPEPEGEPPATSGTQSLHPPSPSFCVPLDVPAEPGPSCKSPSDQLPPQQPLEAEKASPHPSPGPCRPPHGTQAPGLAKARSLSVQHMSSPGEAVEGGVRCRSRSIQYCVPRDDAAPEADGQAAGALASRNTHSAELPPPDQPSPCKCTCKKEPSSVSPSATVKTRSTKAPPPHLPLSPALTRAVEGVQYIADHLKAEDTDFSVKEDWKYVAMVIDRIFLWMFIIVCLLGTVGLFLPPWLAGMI
Chain of Neuronal acetylcholine receptor; alpha3/beta2 (P17787 whole entry): as the sequence (P17787 whole entry) above
Chain of Neuronal acetylcholine receptor; alpha3/beta2 (P32297 whole entry): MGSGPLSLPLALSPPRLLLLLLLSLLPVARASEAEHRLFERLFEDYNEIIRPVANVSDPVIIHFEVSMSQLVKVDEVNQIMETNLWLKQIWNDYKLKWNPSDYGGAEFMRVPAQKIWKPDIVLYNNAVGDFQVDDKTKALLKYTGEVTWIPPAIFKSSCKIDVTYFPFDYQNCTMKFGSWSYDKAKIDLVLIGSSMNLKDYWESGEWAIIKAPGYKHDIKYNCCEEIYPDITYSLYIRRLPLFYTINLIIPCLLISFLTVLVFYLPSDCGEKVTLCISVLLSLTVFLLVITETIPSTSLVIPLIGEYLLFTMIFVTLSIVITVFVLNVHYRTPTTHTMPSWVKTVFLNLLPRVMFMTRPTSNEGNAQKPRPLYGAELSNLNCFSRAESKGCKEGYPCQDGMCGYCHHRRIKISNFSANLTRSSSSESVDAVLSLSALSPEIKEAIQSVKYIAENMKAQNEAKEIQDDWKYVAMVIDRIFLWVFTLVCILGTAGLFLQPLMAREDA
Chain of Beta-3 adrenergic receptor (P13945 whole entry): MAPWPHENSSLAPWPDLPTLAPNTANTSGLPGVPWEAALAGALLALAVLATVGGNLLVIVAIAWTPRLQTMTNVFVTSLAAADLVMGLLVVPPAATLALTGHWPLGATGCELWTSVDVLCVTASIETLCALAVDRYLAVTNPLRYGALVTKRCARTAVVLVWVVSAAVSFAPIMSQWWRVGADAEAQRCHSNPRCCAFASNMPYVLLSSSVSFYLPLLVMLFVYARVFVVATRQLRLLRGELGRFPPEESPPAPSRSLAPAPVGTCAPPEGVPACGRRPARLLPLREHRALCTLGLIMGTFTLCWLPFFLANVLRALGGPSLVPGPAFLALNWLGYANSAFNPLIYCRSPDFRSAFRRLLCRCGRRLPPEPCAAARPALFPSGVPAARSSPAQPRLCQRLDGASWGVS
Chain of Muscarinic acetylcholine receptor M4 (P08173 whole entry): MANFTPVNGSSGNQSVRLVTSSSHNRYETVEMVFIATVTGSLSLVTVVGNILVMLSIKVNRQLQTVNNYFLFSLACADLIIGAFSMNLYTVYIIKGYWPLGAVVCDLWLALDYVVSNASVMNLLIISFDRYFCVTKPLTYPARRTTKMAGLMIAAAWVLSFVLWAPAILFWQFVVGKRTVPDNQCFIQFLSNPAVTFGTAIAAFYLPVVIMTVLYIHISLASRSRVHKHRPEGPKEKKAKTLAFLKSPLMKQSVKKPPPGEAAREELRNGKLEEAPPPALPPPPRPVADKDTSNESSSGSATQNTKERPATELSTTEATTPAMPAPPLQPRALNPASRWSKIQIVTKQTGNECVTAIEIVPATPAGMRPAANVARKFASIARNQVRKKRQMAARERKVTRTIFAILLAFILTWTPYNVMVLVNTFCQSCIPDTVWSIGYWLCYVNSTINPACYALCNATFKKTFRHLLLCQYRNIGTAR
Chain of Translocator protein (P16257 whole entry, looked up): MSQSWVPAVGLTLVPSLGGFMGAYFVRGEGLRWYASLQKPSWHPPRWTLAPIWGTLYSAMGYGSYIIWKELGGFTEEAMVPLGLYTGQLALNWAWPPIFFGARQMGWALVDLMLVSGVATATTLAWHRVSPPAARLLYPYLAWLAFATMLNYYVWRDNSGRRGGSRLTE

## C=CCN(CC=C)CCc1c[nH]c2ccc(OC)cc12
[1]
  Ki: 0.149 µM
[2]
  Ki: > 10 µM
[3]
  pKi: < 5
[4]
  Ki: > 10 µM
[5]
  Ki: > 10 µM
[6]
  pKi: < 5
[7]
  Ki: > 10 µM
[8]
  Ki: 0.679 µM
[9]
  Ki: > 10 µM
[10]
  Ki: > 10 µM
[11]
  Ki: > 10 µM
[12]; read-out: Ki
  Ki: 4.25 µM
[13]
  Ki: > 10 µM
[14]
  Ki: > 10 µM
[15]
  Ki: 0.017 µM
[16]
  Ki: > 10 µM
[17]; read-out: Ki
  Ki: 0.4 µM
[17]; read-out: pKi (converted)
  Ki: 0.398 µM
[18]
  Ki: > 10 µM
[19]
  Emax: 101%
[20]
  Ki: > 10 µM
[21]
  Emax: 95%
[22]
  Ki: > 10 µM
[23]
  IC50: 8.71 µM
  Ki: 2.47 µM
[24]
  Ki: > 10 µM
[25]; read-out: pKi (converted)
  Ki: > 10 µM
[26]
  Ki: > 10 µM
[27]
  EC50: 0.0055 µM

## CC(N)Cc1c[nH]c2ccccc12 (stereo unspecified)
[1]
  Ki: 1.79 µM
[2]
  Ki: > 10 µM
[3]
  pKi: < 5
[4]
  Ki: > 10 µM
[5]
  Ki: > 10 µM
[6]
  pKi: < 5
[7]
  Ki: > 10 µM
[8]
  Ki: 1.13 µM
[9]
  Ki: > 10 µM
[10]
  Ki: > 10 µM
[11]
  Ki: > 10 µM
[28]
  Ki: > 10 µM
[12]; read-out: pKi (converted)
  Ki: > 10 µM
[13]
  Ki: > 10 µM
[14]
  Ki: > 10 µM
[15]
  Ki: 0.103 µM
[16]
  Ki: > 10 µM
[29]
  pKi: < 5
[17]; read-out: pKi (converted)
  Ki: > 10 µM
[18]
  Ki: > 10 µM
[19]
  Emax: 95%
[20]
  Ki: > 10 µM
[21]
  Emax: 84%
[22]
  Ki: > 10 µM
[30]
  IC50: 3.72 µM
  Ki: 0.642 µM
[23]
  IC50: 2.34 µM
  Ki: 0.812 µM
[24]
  Ki: > 10 µM
[25]; read-out: Ki
  Ki: 3.78 µM
[26]
  Ki: > 10 µM
[27]
  EC50: 0.0758 µM
